# Results: ChEMBL document CHEMBL4507311, “Data for DCP probe A-1155463” (2021)
# Activity calls are given as the source filed them. No cut-off for these calls is given here.
# What was measured:
# [1] = molecular target: Melatonin receptor type 1B (Homo sapiens) (UniProt P49286); assay: MT2 (ML1B) (h) Eurofins-Cerep binding assay; design: ligand concentration 0.05 nM; details: filed as agonist, Compound concentration 10.0 uM
# [2] = molecular target: Sodium- and chloride-dependent GABA transporter 1 (Rattus norvegicus) (UniProt P23978); assay: GABA transporter Eurofins-Cerep binding assay; design: ligand concentration 10 nM; details: filed as antagonist, Compound concentration 10.0 uM
# [3] = molecular target: Alpha-1A adrenergic receptor (Homo sapiens) (UniProt P35348); assay: Alpha1A (h) Eurofins-Cerep binding assay; design: ligand concentration 0.1 nM; details: filed as antagonist, Compound concentration 10.0 uM
# Sequence of Alpha-1A adrenergic receptor (Homo sapiens) (P35348 whole entry): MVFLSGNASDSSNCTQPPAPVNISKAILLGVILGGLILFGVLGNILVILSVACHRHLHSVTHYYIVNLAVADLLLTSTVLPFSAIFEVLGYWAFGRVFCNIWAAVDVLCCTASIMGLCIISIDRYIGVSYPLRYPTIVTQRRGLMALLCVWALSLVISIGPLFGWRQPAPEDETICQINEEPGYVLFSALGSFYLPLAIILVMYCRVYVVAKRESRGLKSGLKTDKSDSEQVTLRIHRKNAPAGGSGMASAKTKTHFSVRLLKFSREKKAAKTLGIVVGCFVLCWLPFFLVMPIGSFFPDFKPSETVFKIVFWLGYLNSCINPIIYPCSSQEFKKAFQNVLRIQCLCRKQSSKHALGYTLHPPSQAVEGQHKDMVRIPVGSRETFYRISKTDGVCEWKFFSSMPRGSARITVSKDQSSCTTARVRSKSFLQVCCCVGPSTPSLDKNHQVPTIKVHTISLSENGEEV
# [4] = molecular target: T1, 5-hydroxytryptamine receptor 2C (Homo sapiens) (UniProt P28335); assay: 5-HT2C (h) Eurofins-Cerep binding assay; design: ligand concentration 1 nM; details: filed as antagonist, Compound concentration 10.0 uM
# T1 sequence (whole entry): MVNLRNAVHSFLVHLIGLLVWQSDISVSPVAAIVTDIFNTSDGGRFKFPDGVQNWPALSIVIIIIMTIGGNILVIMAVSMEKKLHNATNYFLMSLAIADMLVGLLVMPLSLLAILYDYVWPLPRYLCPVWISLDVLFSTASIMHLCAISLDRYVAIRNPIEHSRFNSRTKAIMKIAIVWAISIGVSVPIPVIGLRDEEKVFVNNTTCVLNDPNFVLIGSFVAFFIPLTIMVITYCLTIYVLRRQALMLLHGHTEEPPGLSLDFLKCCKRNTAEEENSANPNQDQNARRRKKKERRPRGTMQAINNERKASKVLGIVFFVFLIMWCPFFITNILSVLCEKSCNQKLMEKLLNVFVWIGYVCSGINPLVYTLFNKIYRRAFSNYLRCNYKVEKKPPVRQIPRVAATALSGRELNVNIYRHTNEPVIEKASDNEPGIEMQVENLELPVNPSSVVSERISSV
# [5] = molecular target: T2, Alpha-2A adrenergic receptor (Homo sapiens) (UniProt P08913); assay: Alpha2A (h) Eurofins-Cerep binding assay; design: ligand concentration 1 nM; details: filed as antagonist, Compound concentration 10.0 uM
# T2 sequence (whole entry): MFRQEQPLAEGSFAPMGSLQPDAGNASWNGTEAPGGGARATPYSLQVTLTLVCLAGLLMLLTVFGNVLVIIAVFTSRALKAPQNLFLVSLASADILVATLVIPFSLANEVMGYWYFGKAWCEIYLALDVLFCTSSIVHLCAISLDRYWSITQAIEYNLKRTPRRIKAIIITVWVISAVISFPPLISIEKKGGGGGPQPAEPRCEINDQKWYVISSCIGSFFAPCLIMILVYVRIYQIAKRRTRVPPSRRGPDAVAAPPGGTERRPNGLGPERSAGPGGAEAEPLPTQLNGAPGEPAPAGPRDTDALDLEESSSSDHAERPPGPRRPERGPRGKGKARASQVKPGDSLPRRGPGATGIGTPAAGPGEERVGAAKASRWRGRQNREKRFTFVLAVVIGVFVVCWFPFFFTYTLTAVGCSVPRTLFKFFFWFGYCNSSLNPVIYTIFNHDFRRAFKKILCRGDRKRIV
# [6] = molecular target: Neuropeptide Y receptor type 1 (Homo sapiens) (UniProt P25929); assay: Y1 (h) Eurofins-Cerep binding assay; design: ligand concentration 0.025 nM; details: filed as agonist, Compound concentration 10.0 uM
# Sequence of Neuropeptide Y receptor type 1 (Homo sapiens) (P25929 whole entry): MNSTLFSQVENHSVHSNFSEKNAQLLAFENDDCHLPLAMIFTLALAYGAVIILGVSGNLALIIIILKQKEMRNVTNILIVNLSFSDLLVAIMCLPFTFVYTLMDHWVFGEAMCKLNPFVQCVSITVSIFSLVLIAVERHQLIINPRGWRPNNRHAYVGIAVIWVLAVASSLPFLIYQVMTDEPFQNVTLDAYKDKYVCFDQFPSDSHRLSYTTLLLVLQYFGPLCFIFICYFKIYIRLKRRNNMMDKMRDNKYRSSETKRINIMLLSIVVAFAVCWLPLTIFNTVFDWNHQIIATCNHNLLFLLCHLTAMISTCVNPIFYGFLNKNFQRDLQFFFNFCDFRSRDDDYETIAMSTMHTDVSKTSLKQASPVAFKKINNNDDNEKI
# [7] = molecular target: Adenosine receptor A2b (Homo sapiens) (UniProt P29275); assay: A2B (h) Eurofins-Cerep binding assay; design: ligand concentration 5 nM; details: filed as antagonist, Compound concentration 10.0 uM
# Sequence of Adenosine receptor A2b (Homo sapiens) (P29275 whole entry): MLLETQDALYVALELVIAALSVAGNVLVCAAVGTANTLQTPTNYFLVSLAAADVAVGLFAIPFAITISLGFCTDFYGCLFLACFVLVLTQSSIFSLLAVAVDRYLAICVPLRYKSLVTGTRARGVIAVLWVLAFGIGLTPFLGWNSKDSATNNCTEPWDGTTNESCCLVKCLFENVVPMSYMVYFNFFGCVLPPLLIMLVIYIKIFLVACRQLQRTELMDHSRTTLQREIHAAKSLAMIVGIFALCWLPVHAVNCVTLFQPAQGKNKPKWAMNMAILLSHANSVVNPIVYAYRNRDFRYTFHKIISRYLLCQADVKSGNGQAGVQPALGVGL
# [8] = molecular target: Glutamate NMDA receptor (Rattus norvegicus) (UniProt P35439+Q00959+Q00960+Q00961+Q62645+Q8VHN2+Q9R1M7); assay: NMDA Eurofins-Cerep binding assay; format: protein-complex assay; design: ligand concentration 5 nM; details: filed as antagonist, Compound concentration 10.0 uM
# [9] = molecular target: L-type Ca2+ channel (dihydropyridine site) (Rattus norvegicus, UniProt P22002+P27732+Q02485); assay: Ca2+ channel (L, dihydropyridine site) Eurofins-Cerep binding assay; format: protein assay; design: incubation time 90 min, incubation temperature RT, ligand concentration 0.1 nM; details: rat cerebral cortex, probe [3H]nitrendipine (0.1 nM), compound concentration 10 uM, read-out: % Inhibition of Control Specific Binding (Mean n=2)
# [10] = molecular target: Sigma non-opioid intracellular receptor 1 (Homo sapiens, UniProt Q99720); assay: sigma (non-selective) (h) Eurofins-Cerep binding assay; design: ligand concentration 10 nM; details: filed as agonist, Compound concentration 10.0 uM
# [11] = molecular target: 5-hydroxytryptamine receptor 2B (Homo sapiens) (UniProt P41595); assay: 5-HT2B (h) Eurofins-Cerep binding assay; design: ligand concentration 0.2 nM; details: filed as agonist, Compound concentration 10.0 uM
# [12] = molecular target: D(1A) dopamine receptor (Homo sapiens) (UniProt P21728); assay: D1 (h) Eurofins-Cerep binding assay; design: ligand concentration 0.3 nM; details: filed as antagonist, Compound concentration 10.0 uM
# Sequence of D(1A) dopamine receptor (Homo sapiens) (P21728 whole entry): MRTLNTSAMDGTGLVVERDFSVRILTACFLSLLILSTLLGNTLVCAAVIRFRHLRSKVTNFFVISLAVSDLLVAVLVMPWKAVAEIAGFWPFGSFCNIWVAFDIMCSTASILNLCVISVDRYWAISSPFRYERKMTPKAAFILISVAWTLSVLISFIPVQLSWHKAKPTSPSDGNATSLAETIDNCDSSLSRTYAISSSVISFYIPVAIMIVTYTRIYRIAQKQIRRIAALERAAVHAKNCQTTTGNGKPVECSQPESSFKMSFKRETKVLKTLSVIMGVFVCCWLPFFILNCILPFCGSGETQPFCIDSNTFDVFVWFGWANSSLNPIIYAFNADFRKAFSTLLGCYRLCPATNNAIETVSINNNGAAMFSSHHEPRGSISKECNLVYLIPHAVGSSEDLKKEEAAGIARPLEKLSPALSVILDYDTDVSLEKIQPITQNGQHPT
# [13] = molecular target: Sulfonylurea receptors; K-ATP channels (Rattus norvegicus) (UniProt Q63563+P70673+Q63664+Q09429); assay: KATP channel Eurofins-Cerep binding assay; format: protein-complex assay; design: ligand concentration 0.1 nM; details: filed as antagonist, Compound concentration 10.0 uM
# [14] = molecular target: Type-1 angiotensin II receptor (Homo sapiens) (UniProt P30556); assay: AT1 (h) Eurofins-Cerep binding assay; design: ligand concentration 0.05 nM; details: filed as antagonist, Compound concentration 10.0 uM
# [15] = molecular target: Delta-type opioid receptor (Homo sapiens, UniProt P41143); assay: delta (DOP) (h) Eurofins-Cerep binding assay; design: ligand concentration 0.5 nM; details: filed as agonist, Compound concentration 10.0 uM
# Bcl-2-like protein 1 = Bcl-2-like protein 1 (Homo sapiens, UniProt Q07817); assay: Time-resolved fluorescence energy transfer (TR-FRET) with BCL2L1
# Sequence of Bcl-2-like protein 1 (Q07817 whole entry): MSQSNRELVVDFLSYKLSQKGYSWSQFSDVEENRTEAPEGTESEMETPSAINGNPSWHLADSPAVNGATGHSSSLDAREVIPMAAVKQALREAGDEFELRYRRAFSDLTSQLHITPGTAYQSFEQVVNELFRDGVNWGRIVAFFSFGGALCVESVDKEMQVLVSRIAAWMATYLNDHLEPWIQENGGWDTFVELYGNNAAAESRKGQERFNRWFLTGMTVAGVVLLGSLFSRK
# [16] = molecular target: Muscarinic acetylcholine receptor M1 (Homo sapiens) (UniProt P11229); assay: M1 (h) Eurofins-Cerep binding assay; design: ligand concentration 2 nM; details: filed as antagonist, Compound concentration 10.0 uM
# Sequence of Muscarinic acetylcholine receptor M1 (Homo sapiens) (P11229 whole entry): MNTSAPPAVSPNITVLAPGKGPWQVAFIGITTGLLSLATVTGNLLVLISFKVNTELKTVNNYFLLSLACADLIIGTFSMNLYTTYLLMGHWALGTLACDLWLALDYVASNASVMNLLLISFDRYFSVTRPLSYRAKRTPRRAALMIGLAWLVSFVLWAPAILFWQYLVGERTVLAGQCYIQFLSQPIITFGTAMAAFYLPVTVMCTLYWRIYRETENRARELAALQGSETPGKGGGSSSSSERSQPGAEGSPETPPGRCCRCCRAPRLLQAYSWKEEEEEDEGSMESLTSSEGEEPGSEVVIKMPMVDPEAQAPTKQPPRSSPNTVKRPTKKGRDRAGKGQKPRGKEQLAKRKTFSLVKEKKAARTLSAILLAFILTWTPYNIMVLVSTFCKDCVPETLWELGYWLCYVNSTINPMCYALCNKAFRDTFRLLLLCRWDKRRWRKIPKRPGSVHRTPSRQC
# [17] = molecular target: T3, Alpha-1B adrenergic receptor (Homo sapiens) (UniProt P35368); assay: Alpha1B (h) Eurofins-Cerep binding assay; design: ligand concentration 0.15 nM; details: filed as antagonist, Compound concentration 10.0 uM
# T3 sequence (whole entry): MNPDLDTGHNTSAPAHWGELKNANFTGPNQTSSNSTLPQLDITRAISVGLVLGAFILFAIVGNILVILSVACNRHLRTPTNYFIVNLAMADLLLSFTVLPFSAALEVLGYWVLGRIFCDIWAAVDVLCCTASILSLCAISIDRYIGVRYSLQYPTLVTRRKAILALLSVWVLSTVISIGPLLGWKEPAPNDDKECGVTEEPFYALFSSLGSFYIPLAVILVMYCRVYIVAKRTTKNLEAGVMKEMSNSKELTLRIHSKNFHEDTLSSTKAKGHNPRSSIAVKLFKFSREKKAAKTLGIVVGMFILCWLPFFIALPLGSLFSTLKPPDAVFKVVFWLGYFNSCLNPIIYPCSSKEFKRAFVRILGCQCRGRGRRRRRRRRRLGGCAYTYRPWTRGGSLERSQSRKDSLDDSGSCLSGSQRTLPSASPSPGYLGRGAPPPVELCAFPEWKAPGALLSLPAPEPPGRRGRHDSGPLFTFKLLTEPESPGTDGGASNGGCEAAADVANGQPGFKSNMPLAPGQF
# [18] = molecular target: Prostaglandin E2 receptor EP2 subtype (Homo sapiens) (UniProt P43116); assay: EP2 (h) Eurofins-Cerep binding assay; design: ligand concentration 3 nM; details: filed as agonist, Compound concentration 10.0 uM
# [19] = molecular target: Glucocorticoid receptor (Homo sapiens) (UniProt P04150); assay: GR (h) Eurofins-Cerep binding assay; design: ligand concentration 1.5 nM; details: filed as agonist, Compound concentration 10.0 uM
# Sequence of Glucocorticoid receptor (Homo sapiens) (P04150 whole entry): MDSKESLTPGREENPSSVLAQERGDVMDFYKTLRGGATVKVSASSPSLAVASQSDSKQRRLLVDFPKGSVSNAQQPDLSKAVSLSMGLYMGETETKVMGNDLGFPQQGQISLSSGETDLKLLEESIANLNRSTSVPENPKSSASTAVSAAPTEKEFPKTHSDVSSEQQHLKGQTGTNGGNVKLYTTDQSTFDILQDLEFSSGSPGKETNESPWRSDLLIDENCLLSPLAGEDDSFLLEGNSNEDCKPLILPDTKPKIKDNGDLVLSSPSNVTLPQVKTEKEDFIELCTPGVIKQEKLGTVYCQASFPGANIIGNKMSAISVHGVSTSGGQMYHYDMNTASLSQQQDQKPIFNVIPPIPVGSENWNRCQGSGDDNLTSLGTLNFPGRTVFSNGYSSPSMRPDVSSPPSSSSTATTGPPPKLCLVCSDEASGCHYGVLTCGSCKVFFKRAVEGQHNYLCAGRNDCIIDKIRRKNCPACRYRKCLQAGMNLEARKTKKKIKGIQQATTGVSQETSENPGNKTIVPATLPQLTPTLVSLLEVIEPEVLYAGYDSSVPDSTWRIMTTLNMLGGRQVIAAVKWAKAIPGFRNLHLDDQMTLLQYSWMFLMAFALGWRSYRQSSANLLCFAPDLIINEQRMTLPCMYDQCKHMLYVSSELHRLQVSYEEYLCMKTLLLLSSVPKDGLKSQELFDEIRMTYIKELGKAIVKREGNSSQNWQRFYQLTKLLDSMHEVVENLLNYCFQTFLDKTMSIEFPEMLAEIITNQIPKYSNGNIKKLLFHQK
# [20] = molecular target: D(2) dopamine receptor (Homo sapiens) (UniProt P14416); assay: D2S (h) Eurofins-Cerep binding assay; design: ligand concentration 0.3 nM; details: filed as antagonist, Compound concentration 10.0 uM
# Sequence of D(2) dopamine receptor (Homo sapiens) (P14416 whole entry): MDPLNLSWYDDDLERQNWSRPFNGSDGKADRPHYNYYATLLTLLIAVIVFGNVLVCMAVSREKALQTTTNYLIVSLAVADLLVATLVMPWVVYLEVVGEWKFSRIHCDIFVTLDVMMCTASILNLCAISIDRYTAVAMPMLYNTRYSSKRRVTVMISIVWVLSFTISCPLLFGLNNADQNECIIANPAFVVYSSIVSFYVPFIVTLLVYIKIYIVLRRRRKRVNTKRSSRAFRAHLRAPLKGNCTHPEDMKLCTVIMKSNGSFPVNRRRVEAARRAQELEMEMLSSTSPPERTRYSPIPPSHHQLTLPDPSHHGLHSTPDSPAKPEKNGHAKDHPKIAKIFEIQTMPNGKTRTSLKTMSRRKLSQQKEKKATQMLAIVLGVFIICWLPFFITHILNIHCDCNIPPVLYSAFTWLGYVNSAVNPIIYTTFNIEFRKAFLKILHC
# [21] = molecular target: Kappa-type opioid receptor (Homo sapiens) (UniProt P41145); assay: kappa (h) (KOP) Eurofins-Cerep binding assay; design: ligand concentration 0.5 nM; details: filed as agonist, Compound concentration 10.0 uM
# Sequence of Kappa-type opioid receptor (Homo sapiens) (P41145 whole entry): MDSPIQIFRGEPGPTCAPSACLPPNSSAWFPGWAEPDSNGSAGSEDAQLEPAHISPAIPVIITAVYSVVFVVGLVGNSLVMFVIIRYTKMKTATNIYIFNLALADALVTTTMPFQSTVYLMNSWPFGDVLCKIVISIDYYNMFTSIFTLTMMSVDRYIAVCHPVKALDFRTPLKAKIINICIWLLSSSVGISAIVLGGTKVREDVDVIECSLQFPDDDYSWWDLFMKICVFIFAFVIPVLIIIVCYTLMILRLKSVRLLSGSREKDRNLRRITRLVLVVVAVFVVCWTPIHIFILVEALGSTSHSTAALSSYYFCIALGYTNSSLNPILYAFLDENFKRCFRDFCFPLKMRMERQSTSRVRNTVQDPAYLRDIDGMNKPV
# MOLT-4 = assay: CellTiter-Glo Luminescent Cell Viability Assay (BCL-XL dependent cell line MOLT-4); format: functional, cell-based; details: Homo sapiens
# [22] = molecular target: Vasopressin V1a receptor (Homo sapiens) (UniProt P37288); assay: V1 a (h) Eurofins-Cerep binding assay; design: ligand concentration 0.3 nM; details: filed as agonist, Compound concentration 10.0 uM
# [23] = molecular target: Mu-type opioid receptor (Homo sapiens) (UniProt P35372); assay: mu (MOP) (h) Eurofins-Cerep binding assay; design: ligand concentration 0.5 nM; details: filed as agonist, Compound concentration 10.0 uM
# [24] = molecular target: Endothelin receptor type B (Homo sapiens) (UniProt P24530); assay: ETB (h) Eurofins-Cerep binding assay; design: ligand concentration 0.03 nM; details: filed as agonist, Compound concentration 10.0 uM
# Sequence of Endothelin receptor type B (Homo sapiens) (P24530 whole entry): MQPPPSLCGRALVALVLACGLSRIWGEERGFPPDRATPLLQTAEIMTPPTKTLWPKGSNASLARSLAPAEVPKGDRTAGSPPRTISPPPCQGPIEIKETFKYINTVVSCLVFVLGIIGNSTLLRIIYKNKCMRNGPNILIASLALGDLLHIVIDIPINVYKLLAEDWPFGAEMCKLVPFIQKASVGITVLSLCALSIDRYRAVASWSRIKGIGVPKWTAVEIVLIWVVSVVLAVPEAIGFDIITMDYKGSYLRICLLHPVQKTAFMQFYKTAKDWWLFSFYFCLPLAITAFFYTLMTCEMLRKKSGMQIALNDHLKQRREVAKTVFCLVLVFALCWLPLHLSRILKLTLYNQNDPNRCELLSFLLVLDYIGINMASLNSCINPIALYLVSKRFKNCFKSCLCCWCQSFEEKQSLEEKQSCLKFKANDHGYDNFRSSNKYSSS
Compound,% Inhibition of Control Specific Binding (Mean n=2) [1],% Inhibition of Control Specific Binding (Mean n=2) [2],% Inhibition of Control Specific Binding (Mean n=2) [3],% Inhibition of Control Specific Binding (Mean n=2) [4],% Inhibition of Control Specific Binding (Mean n=2) [5],% Inhibition of Control Specific Binding (Mean n=2) [6],% Inhibition of Control Specific Binding (Mean n=2) [7],% Inhibition of Control Specific Binding (Mean n=2) [8],"inhibition at 90 min, 10 µM [9]",% Inhibition of Control Specific Binding (Mean n=2) [10],% Inhibition of Control Specific Binding (Mean n=2) [11],% Inhibition of Control Specific Binding (Mean n=2) [12],% Inhibition of Control Specific Binding (Mean n=2) [13],% Inhibition of Control Specific Binding (Mean n=2) [14],% Inhibition of Control Specific Binding (Mean n=2) [15],IC50 (Bcl-2-like protein 1),% Inhibition of Control Specific Binding (Mean n=2) [16],% Inhibition of Control Specific Binding (Mean n=2) [17],% Inhibition of Control Specific Binding (Mean n=2) [18],% Inhibition of Control Specific Binding (Mean n=2) [19],further results
CN(C)CC#Cc1ccc(OCCCc2sc(N3CCc4cccc(C(=O)Nc5nc6ccccc6s5)c4C3)nc2C(=O)O)c(F)c1 [A-1155463],20.1%,17.3%,6.7%,4.7%,12.1%,12.5%,32.8%,21.6%,-21.8%,57.8%,-46.8%,26.2%,27.4%,20.5%,77.9%,0.55 nM (active),19.1%,15.5%,33.8%,37.8%,% Inhibition of Control Specific Binding (Mean n=2) [20]: 27.1%; % Inhibition of Control Specific Binding (Mean n=2) [21]: 34.4%; EC50 (MOLT-4): 214 nM (active); % Inhibition of Control Specific Binding (Mean n=2) [22]: 5.3%; % Inhibition of Control Specific Binding (Mean n=2) [23]: 36.1%; % Inhibition of Control Specific Binding (Mean n=2) [24]: 9.6%
O=C(Nc1nc2ccccc2s1)c1cccc2c1CN(c1nc(C(=O)O)c(CCOc3ccc(-n4ncc5cncnc54)cc3)s1)CC2 [A-1107969],8.7%,-1.5%,-6.1%,1.7%,1.9%,-0.4%,-14.8%,7.8%,-2.2%,-47.8%,-44.2%,3.5%,15.8%,-3.5%,-1.8%,270 nM (not active),-1.6%,-4.7%,60.3%,55.4%,% Inhibition of Control Specific Binding (Mean n=2) [20]: 13.5%; % Inhibition of Control Specific Binding (Mean n=2) [21]: 17%; EC50 (MOLT-4): > 10000 nM (not active); % Inhibition of Control Specific Binding (Mean n=2) [22]: 4.8%; % Inhibition of Control Specific Binding (Mean n=2) [23]: 6%; % Inhibition of Control Specific Binding (Mean n=2) [24]: 0.8%
